Measurements taken from PubChem BioAssay (NCI).
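Tested at 5 concentrations; 48 h exposure; 96-well plates; endpoints linearly interpolated, else capped at highest concentration. Definition used: TGI = concentration required for complete inhibition of growth.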

Tests used:
Assay in all cases: growth of human tumour cells (NCI), 48 h
SW-620 colon = test system: SW-620 colon
BT-549 breast = test system: BT-549 breast
A549 NSCLC = test system: A549 NSCLC
NCI/ADR-RES ovarian = test system: NCI/ADR-RES ovarian
HCC-2998 colon = test system: HCC-2998 colon
SF-539 CNS = test system: SF-539 CNS
CAKI-1 renal = test system: CAKI-1 renal
MDA-MB-435 = test system: MDA-MB-435
MALME-3M melanoma = test system: MALME-3M melanoma
OVCAR-4 ovarian = test system: OVCAR-4 ovarian
SF-295 CNS = test system: SF-295 CNS
SK-MEL-2 melanoma = test system: SK-MEL-2 melanoma
U251 CNS = test system: U251 CNS
SNB-19 CNS = test system: SNB-19 CNS
PC-3 prostate = test system: PC-3 prostate
SNB-75 CNS = test system: SNB-75 CNS
SK-OV-3 ovarian = test system: SK-OV-3 ovarian
T-47D breast = test system: T-47D breast
DU-145 prostate = test system: DU-145 prostate
UO-31 renal = test system: UO-31 renal
KM12 colon = test system: KM12 colon
K-562 leukemia = test system: K-562 leukemia
HOP-62 NSCLC = test system: HOP-62 NSCLC
MCF7 breast = test system: MCF7 breast
MDA-N = test system: MDA-N
RPMI-8226 leukemia = test system: RPMI-8226 leukemia
IGROV1 ovarian = test system: IGROV1 ovarian
SR leukemia = test system: SR leukemia
HCT-116 colon = test system: HCT-116 colon
HCT-15 colon = test system: HCT-15 colon
EKVX NSCLC = test system: EKVX NSCLC
M14 melanoma = test system: M14 melanoma
NCI-H23 lung = test system: NCI-H23 lung
NCI-H522 lung = test system: NCI-H522 lung
RXF 393 renal = test system: RXF 393 renal
MOLT-4 leukemia = test system: MOLT-4 leukemia
NCI-H460 lung = test system: NCI-H460 lung
A498 renal = test system: A498 renal
OVCAR-5 ovarian = test system: OVCAR-5 ovarian
SK-MEL-5 melanoma = test system: SK-MEL-5 melanoma
LOX IMVI melanoma = test system: LOX IMVI melanoma
NCI-H226 lung = test system: NCI-H226 lung
HT29 colon = test system: HT29 colon
SF-268 CNS = test system: SF-268 CNS
SK-MEL-28 melanoma = test system: SK-MEL-28 melanoma
SN12C renal = test system: SN12C renal
786-0 renal = test system: 786-0 renal
MDA-MB-231 breast = test system: MDA-MB-231 breast
UACC-62 melanoma = test system: UACC-62 melanoma
COLO 205 colon = test system: COLO 205 colon
TK-10 renal = test system: TK-10 renal
ACHN renal = test system: ACHN renal
UACC-257 melanoma = test system: UACC-257 melanoma
OVCAR-8 ovarian = test system: OVCAR-8 ovarian
HS 578T breast = test system: HS 578T breast
HL-60(TB) leukemia = test system: HL-60(TB) leukemia
OVCAR-3 ovarian = test system: OVCAR-3 ovarian
HOP-92 NSCLC = test system: HOP-92 NSCLC

Measured: TGI

C[C@@H]1CC[C@@H]2[C@@H](C1)O[C@@H]([C@H](C)OCc1ccccc1)SC2(C)C
37.2 µM: ACHN renal
62.1 µM: 786-0 renal
88.1 µM: SK-MEL-28 melanoma
49.2 µM: SNB-75 CNS
31.8 µM: HCC-2998 colon
34 µM: COLO 205 colon
32.9 µM: T-47D breast
39.5 µM: K-562 leukemia
33 µM: SK-MEL-2 melanoma | SK-MEL-5 melanoma | NCI-H226 lung
35.6 µM: SR leukemia
75.5 µM: NCI/ADR-RES ovarian
31.7 µM: OVCAR-5 ovarian
29.3 µM: HCT-116 colon
34.9 µM: MOLT-4 leukemia
29.6 µM: UO-31 renal
35.1 µM: RPMI-8226 leukemia
65.5 µM: MDA-N
33.5 µM: U251 CNS
47.1 µM: M14 melanoma
40.1 µM: MDA-MB-231 breast
32.8 µM: LOX IMVI melanoma
42.4 µM: SN12C renal
36.1 µM: KM12 colon
33.4 µM: RXF 393 renal
53.1 µM: MALME-3M melanoma
31.5 µM: MCF7 breast
36.8 µM: SNB-19 CNS
39.3 µM: A498 renal
34.5 µM: SF-295 CNS
36.3 µM: SW-620 colon
82.7 µM: HCT-15 colon
73.3 µM: UACC-257 melanoma
53.5 µM: NCI-H460 lung
40.2 µM: NCI-H522 lung
not listed: HS 578T breast | HL-60(TB) leukemia | OVCAR-3 ovarian | HOP-92 NSCLC
> 100 µM: all other assays above

Cn1c2ccccc2c(=O)c2cccc(C(=O)NC(CCC(N)=O)C(=O)O)c21 (stereo unspecified)
0.678 µM: HL-60(TB) leukemia
not listed: UO-31 renal | NCI-H522 lung | RXF 393 renal | HOP-92 NSCLC
> 100 µM: all other assays above

Cc1cn(CC2=NCC(C)N2)c(=O)[nH]c1=O (stereo unspecified)
not listed: SF-539 CNS | CAKI-1 renal | MDA-MB-435 | OVCAR-4 ovarian | KM12 colon | HL-60(TB) leukemia | OVCAR-3 ovarian
> 100 µM: all other assays above

COCN1C(=O)[C@@H]2CCCN2C(=O)c2cc(N)ccc21
8.86 µM: COLO 205 colon
not listed: HCC-2998 colon | K-562 leukemia | RPMI-8226 leukemia | SR leukemia | MOLT-4 leukemia | NCI-H460 lung | SK-MEL-5 melanoma | NCI-H226 lung | HL-60(TB) leukemia | OVCAR-3 ovarian | HOP-92 NSCLC
> 100 µM: all other assays above
